The molecules below were run against T1, human glucocorticoid receptor (GR) complex (Homo sapiens, UniProt P04150) (assay: Glucocorticoid Receptor Competitive Binding Assay (fluorescence polarization, TAMRA-labeled dexamethasone probe)). Conditions: qualitative statement; competition with TAMRA-labeled dexamethasone.
T1 construct: made in house; host or cells: insect expression system (baculovirus lysate)
T1 sequence (P04150 1-777): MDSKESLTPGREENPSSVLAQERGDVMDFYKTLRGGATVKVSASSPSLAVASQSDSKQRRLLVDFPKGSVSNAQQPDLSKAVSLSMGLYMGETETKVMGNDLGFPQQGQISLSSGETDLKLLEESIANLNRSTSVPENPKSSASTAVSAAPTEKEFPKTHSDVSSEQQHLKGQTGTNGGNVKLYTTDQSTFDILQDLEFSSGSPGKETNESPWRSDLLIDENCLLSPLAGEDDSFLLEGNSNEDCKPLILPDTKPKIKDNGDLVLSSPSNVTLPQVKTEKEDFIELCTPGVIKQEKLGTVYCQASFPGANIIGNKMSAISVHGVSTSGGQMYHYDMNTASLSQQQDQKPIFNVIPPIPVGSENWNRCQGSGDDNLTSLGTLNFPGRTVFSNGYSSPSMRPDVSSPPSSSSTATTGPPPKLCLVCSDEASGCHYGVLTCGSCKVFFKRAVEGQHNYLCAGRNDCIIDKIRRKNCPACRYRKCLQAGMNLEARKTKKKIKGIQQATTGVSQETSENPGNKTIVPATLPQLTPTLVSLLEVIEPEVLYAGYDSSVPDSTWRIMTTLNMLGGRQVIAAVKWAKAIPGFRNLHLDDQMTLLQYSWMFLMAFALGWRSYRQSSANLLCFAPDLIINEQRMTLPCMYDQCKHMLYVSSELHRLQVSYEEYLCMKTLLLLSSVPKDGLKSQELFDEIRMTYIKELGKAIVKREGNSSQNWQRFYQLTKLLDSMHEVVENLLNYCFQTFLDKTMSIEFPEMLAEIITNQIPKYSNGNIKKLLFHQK
Experimental: Compounds of the invention were evaluated for binding to the steroid receptor by a fluorescence polarization competitive binding assay.
A. Glucocorticoid Receptor Competitive Binding Assay
Step 1. Characterization of the Fluorescent Probe
The wavelengths for maximum excitation and emission of the fluorescent probe should first be measured. An example of such a probe is rhodamine (TAMRA)-labeled dexamethasone.
The affinity of the probe for the steroid receptor was then determined in a titration experiment. The fluorescence polarization value of the probe in assay buffer was measured on an SLM-8100 fluorometer using the excitation and emission maximum values described above. Aliquots of expression vector lysate were added and fluorescence polarization was measured after each addition until no further change in polarization value was observed. Non-linear least squares regression analysis was used to calculate the dissociation constant of the probe from the polarization values obtained for lysate binding to the probe.
Step 2. Screening for Inhibitors of Probe Binding
This assay uses fluorescence polarization (FP) to quantitate the ability of test compounds to compete with tetramethyl rhodamine (TAMRA)-labeled dexamethasone for binding to a human glucocorticoid receptor (GR) complex prepared from an insect expression system. The assay buffer was: 10 mM TES, 50 mM KCl, 20 mM Na2MoO4. 2H2O, 1.5 mM EDTA, 0.04% w/v CHAPS, 10% v/v glycerol, 1 mM dithiothreitol, pH 7.4. Test compounds were dissolved to 1 mM in neat DMSO and then further diluted to 10× assay concentration in assay buffer supplemented with 10% v/v DMSO. Test compounds were serially diluted at 10× assay concentrations in 10% DMSO-containing buffer in 96-well polypropylene plates. […] Positive controls were reaction mixtures containing no test compound; negative controls (blanks) were reaction mixtures containing 0.7 μM to 2 μM dexamethasone. […] IC50 values were determined by iterative non-linear curve fitting of the FP signal data to a 4-parameter logistic equation.

| Structure (SMILES) | activity in the GR binding assay |
| --- | --- |
| CC(C)(CC(O)(Cc1cc2ccncc2[nH]1)C(F)(F)F)c1ccc(F)cc1 (stereo not shown) [1,1,1-Trifluoro-4-(4-fluorophenyl)-4-methyl-2-(1H-pyrrolo[2,3-c]pyridin-2-ylmethyl)pentan-2-ol] | potent activity |
| CC(C)(CC(O)(Cc1cc2ccncc2[nH]1)C(F)(F)F)c1cc(F)cc2c1OCC2 (stereo not shown) [1,1,1-Trifluoro-4-(5-fluoro-2,3-dihydrobenzofuran-7-yl)-4-methyl-2-(1H-pyrrolo[2,3-c]pyridin-2-ylmethyl)pentan-2-ol] | potent activity |
| CC(C)(CC(O)(Cc1ccnc(Cl)c1)C(F)(F)F)c1cc(F)ccc1O (stereo not shown) [1,1,1-Trifluoro-4-(5-fluoro-2-hydroxyphenyl)-4-methyl-2-(2-chloropyridin-4-ylmethyl)pentan-2-ol] | potent activity |
| CC(C)(CC(O)(Cc1cc(Cl)nc2ccccc12)C(F)(F)F)c1cc(F)ccc1O (stereo not shown) [1,1,1-Trifluoro-4-(5-fluoro-2-hydroxyphenyl)-4-methyl-2-(2-chloroquinolin-4-ylmethyl)pentan-2-ol] | potent activity |
| COc1ccc(F)cc1C(C)(C)CC(O)(Cc1cc2cccnc2[nH]1)C(F)(F)F (stereo not shown) [1,1,1-Trifluoro-4-(5-fluoro-2-methoxyphenyl)-4-methyl-2-(1H-pyrrolo[2,3-b]pyridin-2-ylmethyl)pentan-2-ol] | potent activity |
| COc1ccc(F)cc1C(C)(C)CC(O)(Cc1cc2ncccc2[nH]1)C(F)(F)F (stereo not shown) [1,1,1-Trifluoro-4-(5-fluoro-2-methoxyphenyl)-4-methyl-2-(1H-pyrrolo[3,2-b]pyridin-2-ylmethyl)pentan-2-ol] | potent activity |
| COc1ccc(F)cc1C(C)(C)CC(O)(Cc1ccnc(Br)c1)C(F)(F)F (stereo not shown) [1,1,1-Trifluoro-4-(5-fluoro-2-methoxyphenyl)-4-methyl-2-(2-bromopyridin-4-ylmethyl)pentan-2-ol] | potent activity |
| COc1ccc(F)cc1C(C)(C)CC(O)(Cc1ccnc(Cl)c1)C(F)(F)F (stereo not shown) [1,1,1-Trifluoro-4-(5-fluoro-2-methoxyphenyl)-4-methyl-2-(2-chloropyridin-4-ylmethyl)pentan-2-ol] | potent activity |
| COc1ccc(F)cc1C(C)(C)CC(O)(Cc1cc(Cl)nc2ccccc12)C(F)(F)F (stereo not shown) [1,1,1-Trifluoro-4-(5-fluoro-2-methoxyphenyl)-4-methyl-2-(2-chloroquinolin-4-ylmethyl)pentan-2-ol] | potent activity |
| COc1ccc(F)cc1C(C)(C)CC(O)(Cc1nc2cccc(C)c2[nH]1)C(F)(F)F (stereo not shown) [1,1,1-Trifluoro-4-(5-fluoro-2-methoxyphenyl)-4-methyl-2-(7-methyl-1H-benzoimidazol-2-ylmethyl)pentan-2-ol] | potent activity |
| Cc1ccc(F)cc1C(C)(C)CC(O)(Cc1nc2cccc(C)c2[nH]1)C(F)(F)F (stereo not shown) [1,1,1-Trifluoro-4-(5-fluoro-2-methylphenyl)-4-methyl-2-(7-methyl-1H-benzoimidazol-2-ylmethyl)pentan-2-ol] | potent activity |
| Cc1ccc(C(C)(C)CC(O)(Cc2ccnc3ccccc23)C(F)(F)F)cc1 (stereo not shown) [1,1,1-Trifluoro-4-methyl-2-quinolin-4-ylmethyl-4-p-tolylpentan-2-ol] | potent activity |
| CC(C)(CC(O)(Cc1ccnc2ccccc12)C(F)(F)F)c1ccsc1 (stereo not shown) [1,1,1-Trifluoro-4-methyl-2-quinolin-4-ylmethyl-4-thiophen-3-ylpentan-2-ol] | potent activity |
| CC(C)(CC(O)(Cc1ccnc2ccccc12)C(F)(F)F)c1ccc2ccccc2c1 (stereo not shown) [1,1,1-Trifluoro-4-methyl-4-naphthalen-2-yl-2-quinolin-4-ylmethylpentan-2-ol] | potent activity |
| COc1ccc(F)cc1C(C)(C)CC(O)(Cc1cc2ccccc2[nH]1)CC1CC1 (stereo not shown) [1-Cyclopropyl-4-(5-fluoro-2-methoxyphenyl)-2-(indol-2-ylmethyl)-4-methylpentan-2-ol] | potent activity |
| CC(C)(CC(O)(Cn1cc(C#N)c2ccccc21)C(F)(F)F)c1cccc2c1OCC2 (stereo not shown) [1-[4-(2,3-Dihydrobenzofuran-7-yl)-2-hydroxy-4-methyl-2-trifluoromethylpentyl]-1H-indole-3-carbonitrile] | potent activity |
| COc1ccc(F)cc1C(C)(C)CC(O)(Cn1cc(C#N)c2ccccc21)C(F)(F)F (stereo not shown) [1-[4-(5-Fluoro-2-methoxyphenyl)-2-hydroxy-4-methyl-2-trifluoromethylpentyl]-1H-indole-3-carbonitrile] | potent activity |
| COc1ccc(F)cc1C(C)(C)CC(O)(Cc1nc2ccccc2[nH]1)C(F)(F)F (stereo not shown) [2-(1H-Benzimidazol-2-ylmethyl)-1,1,1-trifluoro-4-(5-fluoro-2-methoxyphenyl)-4-methylpentan-2-ol] | potent activity |
| CC(C)(CC(O)(Cc1[nH]c2ccccc2c1C#N)C(F)(F)F)c1ccccc1 (stereo not shown) [2-(2-Hydroxy-4-methyl-4-phenyl-2-trifluoromethylpentyl)-1H-indole-3-carbonitrile] | potent activity |
| COc1ccc(F)cc1C(C)(C)CC(O)(Cn1cc(C)nc1-c1ccccc1)C(F)(F)F (stereo not shown) [2-(2-Phenyl-4-methylimidazol-1-ylmethyl)-1,1,1-trifluoro-4-(5-fluoro-2-methoxyphenyl)-4-methylpentan-2-ol] | potent activity |
| COc1ccc(F)cc1C(C)(C)CC(O)(Cn1ccnc1-c1ccccc1)C(F)(F)F (stereo not shown) [2-(2-Phenylimidazol-1-ylmethyl)-1,1,1-trifluoro-4-(5-fluoro-2-methoxyphenyl)-4-methylpentan-2-ol] | potent activity |
| CC(C)(CC(O)(Cc1ccnc2ccccc12)C(F)(F)F)c1ccc2ccccc2c1O (stereo not shown) [2-(4,4,4-Trifluoro-3-hydroxy-1,1-dimethyl-3-quinolin-4-ylmethylbutyl)naphthalen-1-ol] | potent activity |
| COc1ccc(F)cc1C(C)(C)CC(O)(Cc1nc2cc(C)cc(C)c2[nH]1)C(F)(F)F (stereo not shown) [2-(5,7-Dimethyl-1H-benzoimidazol-2-ylmethyl)-1,1,1-trifluoro-4-(5-fluoro-2-methoxyphenyl)-4-methylpentan-2-ol] | potent activity |
| COc1ccc(F)cc1C(C)(C)CC(O)(Cc1nc2ccc(F)c(F)c2[nH]1)C(F)(F)F (stereo not shown) [2-(6,7-Difluoro-1H-benzoimidazol-2-ylmethyl)-1,1,1-trifluoro-4-(5-fluoro-2-methoxyphenyl)-4-methylpentan-2-ol] | potent activity |
| CCc1cccc(C(C)(C)CC(O)(Cc2ccnc3ccccc23)C(F)(F)F)c1O (stereo not shown) [2-Ethyl-6-(4,4,4-trifluoro-3-hydroxy-1,1-dimethyl-3-quinolin-4-ylmethylbutyl)phenol] | potent activity |
| CCc1cccc(C(C)(C)CC(O)(Cc2cc3ccccc3[nH]2)C(F)(F)F)c1O (stereo not shown) [2-Ethyl-6-[4,4,4-trifluoro-3-hydroxy-3-(1H-indol-2-ylmethyl)-1,1-dimethylbutyl]phenol] | potent activity |
| COc1cccc(C(C)(C)CC(O)(Cc2cc3cc(C#N)ccc3[nH]2)C(F)(F)F)c1 (stereo not shown) [2-[2-Hydroxy-4-(3-methoxyphenyl)-4-methyl-2-trifluoromethylpentyl]-1H-indole-5-carbonitrile] | potent activity |
| CC(C)(CC(O)(Cc1cc(Cl)nc(Cl)c1)C(F)(F)F)c1cc(F)ccc1O (stereo not shown) [2-[3-(2,6-Dichloropyridin-4-ylmethyl)-4,4,4-trifluoro-3-hydroxy-1,1-dimethylbutyl]-4-fluorophenol] | potent activity |

— patent US7553966B2, “Glucocorticoid mimetics, methods of making them, pharmaceutical compositions, and uses thereof” (Boehringer Ingelheim Pharmaceuticals, Inc., priority 2002, dated 2009)
